Test results taken from US20050250793A1, “Preventives/remedies for hot flash” (priority 2002, published 2005).
Counter-ions that a name gives are not always drawn.

Assays:
[1] = target: T1, rat GnRH receptor (Rattus norvegicus, UniProt P30969); experiment: 125I-leuprorelin binding inhibition, rat anterior pituitary membrane fraction; settings: 1 μM compound, 4° C., 90 minutes, read-out: Binding inhibiting rate (%) Rat (1 μM)
T1 construct: Anterior pituitaries were removed from 40 Whister rats (8 weeks old, male); from tissue; host or cells: rat anterior pituitary membrane fraction
T1 sequence (P30969 1-327): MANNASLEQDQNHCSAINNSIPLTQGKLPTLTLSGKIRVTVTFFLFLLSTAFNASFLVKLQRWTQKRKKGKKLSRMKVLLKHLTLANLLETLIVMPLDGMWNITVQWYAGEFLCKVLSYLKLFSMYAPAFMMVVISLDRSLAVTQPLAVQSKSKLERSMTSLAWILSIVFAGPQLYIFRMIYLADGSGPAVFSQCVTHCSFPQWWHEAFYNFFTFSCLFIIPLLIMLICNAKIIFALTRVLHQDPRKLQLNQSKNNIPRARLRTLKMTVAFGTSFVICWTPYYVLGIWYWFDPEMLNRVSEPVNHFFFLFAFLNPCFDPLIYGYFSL

[2] = Administration to premenopausal healthy females for 14 days; type: in vivo, human; settings: 32 premenopausal healthy females (20 to 45 years old), 1 to 25 mg/day for 14 days
Description: To 32 premenopausal healthy females (20 years old to 45 years old), 1 to 25 mg/day of the compound of Reference Example 7 was administered for 14 days. As a result, the serum estradiol concentration was reduced, but hot flash was not observed.

| inhibition at 1 µM [1] [%] | hot flash [2] | SMILES | serum estradiol concentration [2] |
| --- | --- | --- | --- |
| 27 |  | CONC(=O)Nc1ccc(-c2sc3c(c2CN(C)Cc2ccccc2)c(=O)n(-c2ccccc2)c(=O)n3Cc2c(F)cccc2F)cc1 [Reference Example 8, 5-(N-benzyl-N-methylaminomethyl)-1-(2,6-difluorobenzyl)-6-[4-(3-methoxyureido)phenyl]-3-phenylthieno[2,3-d]pyrimidine-2,4(1H, 3H)-dione hydrochloride] |  |
|  | not observed | CONC(=O)Nc1ccc(-c2sc3c(c2CN(C)Cc2ccccc2)c(=O)n(-c2ccccc2)c(=O)n3Cc2c(F)cccc2F)cc1 [Reference Example 7, 5-(N-benzyl-N-methylaminomethyl)-1-(2,6-difluorobenzyl)-6-[4-(3-methoxyureido)phenyl]-3-phenylthieno[2,3-d]pyrimidine-2,4(1H, 3H)-dione] | reduced |
